Among the test systems are SNB-75 CNS; A549 NSCLC; MCF7 breast; HCT-15 colon; SN12C renal; SF-268 CNS; BT-549 breast; IGROV1 ovarian; SR leukemia; HT29 colon.
Assay in all cases: inhibition of tumour cell growth, NCI panel, 48 h

Molecules are shown by their SMILES.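 A five-concentration, 48-hour dose response in 96-well plates underlies each endpoint, interpolated linearly between surrounding concentrations. Here, GI50 denotes the concentration required for 50% inhibition of growth. TGI: total growth inhibition.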 Bounds are passed on as bounds.

Consider `COc1ccc2c(c1)CC[C@@H]1[C@@H]2CC[C@]2(C)c3[nH]ncc3C[C@@H]12`, for which the GI50 was 21.9 µM in the assay on SNB-75 CNS; 15.2 µM in the assay with A549 NSCLC; 13.4 µM with MCF7 breast; 16.8 µM in the assay with HCT-15 colon; 18 µM with SN12C renal; 19.6 µM in the assay on SF-268 CNS. The GI50 in the assay on BT-549 breast was 26 µM; in the assay with IGROV1 ovarian it was 21.9 µM; with SR leukemia, 2.14 µM; in the assay on HT29 colon, 15 µM. The TGI with SNB-75 CNS is above 50 µM; in the assay with A549 NSCLC, above 50 µM; with MCF7 breast it was 35.7 µM; with HCT-15 colon, above 50 µM; in the assay on SN12C renal, above 50 µM; with SF-268 CNS it was above 50 µM. In addition, the TGI in the assay with BT-549 breast is above 50 µM; with IGROV1 ovarian it was above 50 µM; in the assay with SR leukemia, 15.3 µM; in the assay with HT29 colon, above 50 µM.

With `O=C(C[C@@]1(O)C(=O)Nc2c(Cl)ccc(Cl)c21)c1ccc(C2CC2)cc1`, the GI50 in the assay with SNB-75 CNS was 0.143 µM; in the assay on A549 NSCLC, 0.729 µM; in the assay on MCF7 breast, 0.171 µM; with HCT-15 colon, 0.102 µM; in the assay with SN12C renal, 0.88 µM; in the assay on SF-268 CNS, 1.3 µM. For the same compound, the GI50 is 0.445 µM in the assay with BT-549 breast, 0.446 µM in the assay on IGROV1 ovarian, 0.0527 µM with SR leukemia and 0.222 µM with HT29 colon. Moreover, the TGI in the assay on SNB-75 CNS is 0.588 µM; in the assay with A549 NSCLC, 24 µM; with MCF7 breast, 18.2 µM; in the assay on HCT-15 colon, 13.6 µM; with SN12C renal it was 17.7 µM; in the assay with SF-268 CNS it was 18.5 µM. Besides, the TGI stood at 11.7 µM in the assay on BT-549 breast, 13.6 µM with IGROV1 ovarian, 15.4 µM in the assay with SR leukemia and 13.7 µM in the assay on HT29 colon.

Take `COc1ccc2[nH]c(-c3ccccc3)c(C=C(C#N)C#N)c2c1`: the GI50 in the assay with SNB-75 CNS is 2.76 µM; in the assay on A549 NSCLC, 6.97 µM; in the assay on MCF7 breast, 2.16 µM; with HCT-15 colon, 3.23 µM; in the assay on SN12C renal, 4.67 µM; in the assay on SF-268 CNS, 8.27 µM. In addition, the GI50 is 2.17 µM with BT-549 breast, 8.35 µM in the assay with IGROV1 ovarian, 0.865 µM in the assay with SR leukemia and 3.13 µM in the assay on HT29 colon. Moreover, the TGI was 21.2 µM in the assay with SNB-75 CNS; above 100 µM with A549 NSCLC; above 100 µM in the assay with MCF7 breast; above 100 µM in the assay with HCT-15 colon; above 100 µM in the assay with SN12C renal; above 100 µM in the assay with SF-268 CNS. Besides, the TGI was above 100 µM in the assay with BT-549 breast, above 100 µM with IGROV1 ovarian, 3.29 µM in the assay with SR leukemia and above 100 µM with HT29 colon.

Turning to `COc1ccc2c(c1)C(=O)c1c-2c(OCCN(C)C)nc2cc(OC)ccc12`, the GI50 with SNB-75 CNS is 1.99 µM; with A549 NSCLC, 0.804 µM; in the assay with MCF7 breast, 0.348 µM; in the assay with HCT-15 colon, 0.475 µM; in the assay with SN12C renal, 1.06 µM; with SF-268 CNS it was 1.12 µM. Besides, the GI50 was 4.03 µM in the assay with BT-549 breast, 1.01 µM in the assay on IGROV1 ovarian, 0.264 µM in the assay on SR leukemia and 0.333 µM in the assay with HT29 colon. Besides, the TGI worked out at 9.02 µM in the assay on SNB-75 CNS; 2.8 µM with A549 NSCLC; 1.6 µM with MCF7 breast; 2.39 µM with HCT-15 colon; 2.69 µM in the assay on SN12C renal; 2.84 µM in the assay with SF-268 CNS. For the same compound, the TGI in the assay with BT-549 breast is 15.2 µM; in the assay with IGROV1 ovarian it was 6.03 µM; in the assay on SR leukemia, 1.42 µM; in the assay with HT29 colon, 1.37 µM.

As to `CCC(C(=O)c1cccs1)C(O)(C(F)(F)F)C(F)(F)F` (stereo not given), the TGI in the assay with SNB-75 CNS, in the assay on A549 NSCLC, in the assay on MCF7 breast, in the assay on HCT-15 colon, with SN12C renal and in the assay on SF-268 CNS was above 100 µM each time. Also, the TGI in the assay on BT-549 breast, in the assay with IGROV1 ovarian, with SR leukemia and in the assay with HT29 colon was above 100 µM in each case.

Regarding `OC(COc1cccc2ccccc12)CN1CCN(c2ccc(Cl)cc2)CC1` (stereo not given), the GI50 with SNB-75 CNS was 9.76 µM; with A549 NSCLC it was 19.4 µM; in the assay with MCF7 breast, 29.9 µM; with HCT-15 colon, above 100 µM; in the assay with SN12C renal, 51 µM; in the assay with SF-268 CNS, 19.1 µM. The GI50 in the assay on BT-549 breast is above 100 µM; with IGROV1 ovarian, 14.6 µM; in the assay with SR leukemia, above 100 µM; with HT29 colon, 16.6 µM. Besides, the TGI in the assay on SNB-75 CNS was 27.1 µM; in the assay on A549 NSCLC, above 100 µM; in the assay with MCF7 breast, above 100 µM; in the assay on HCT-15 colon it was above 100 µM; in the assay with SN12C renal it was above 100 µM; with SF-268 CNS it was 45.5 µM. The TGI is above 100 µM in the assay on BT-549 breast, 40 µM with IGROV1 ovarian, above 100 µM with SR leukemia and 77.6 µM in the assay on HT29 colon.

`FC(F)(F)c1[nH]ncc1-c1nc2c(N3CCCCC3)cc3[nH]ncc3c2c2c1CCCC2`: the GI50 with SNB-75 CNS is 0.533 µM; in the assay with A549 NSCLC, 0.816 µM; with MCF7 breast, 0.514 µM; with HCT-15 colon it was 1.07 µM; in the assay with SN12C renal it was 0.878 µM; in the assay with SF-268 CNS, 0.786 µM. Also, the GI50 in the assay on BT-549 breast was 0.643 µM; in the assay on IGROV1 ovarian, 0.556 µM; in the assay on SR leukemia, 0.235 µM; in the assay with HT29 colon it was 1.3 µM. Also, the TGI is 1.2 µM in the assay on SNB-75 CNS; above 12.5 µM in the assay with A549 NSCLC; above 15.4 µM with MCF7 breast; above 16.5 µM in the assay with HCT-15 colon; above 15.7 µM in the assay with SN12C renal; 1.97 µM in the assay on SF-268 CNS. For the same compound, the TGI in the assay on BT-549 breast is 1.37 µM; with IGROV1 ovarian, 3.66 µM; in the assay on SR leukemia, above 50 µM; in the assay with HT29 colon it was above 50 µM.

For the compound `O=C(CCc1ccco1)NC1CCN(CC2(c3ccc(Cl)cc3)CCC2)CC1`, the GI50 in the assay on SNB-75 CNS is 10 µM; in the assay with A549 NSCLC, 14.6 µM; in the assay with MCF7 breast it was 11.5 µM; with HCT-15 colon, 6.27 µM; in the assay on SN12C renal, 15.4 µM; with SF-268 CNS, 15.1 µM. In addition, the GI50 in the assay on BT-549 breast was 15.2 µM; in the assay on IGROV1 ovarian, 19.5 µM; in the assay with SR leukemia, 6.93 µM; in the assay on HT29 colon, 3.44 µM. Also, the TGI is 21.7 µM in the assay on SNB-75 CNS; 32.5 µM with A549 NSCLC; 26.7 µM with MCF7 breast; 20.3 µM in the assay with HCT-15 colon; 33.1 µM in the assay on SN12C renal; 30.7 µM in the assay on SF-268 CNS. Also, the TGI in the assay on BT-549 breast is 29.6 µM; with IGROV1 ovarian, 45.8 µM; in the assay with SR leukemia, 28.7 µM; with HT29 colon, 11.8 µM.
